Activity calls are given as the source filed them. The calls are words filed in the database; no cut-off is given here. Square brackets hold non-standard residues; d marks the D form. Peptide text beside a SMILES is read from it. * marks the point of attachment. ξ: configuration not given here. Benzoyl(4-TriPhPorphyrinyl) = O=C(c1ccc(-c2c3nc(c(-c4ccccc4)c4ccc([nH]4)c(-c4ccccc4)c4nc(c(-c5ccccc5)c5ccc2[nH]5)C=C4)C=C3)cc1)*; Pyropheophorbide(a) = C=Cc1c(C)c2cc3nc(c4c5[nH]c(cc6nc(cc1[nH]2)C(C)=C6CC)c(C)c5C(=O)C4)[C@@H](CCC(=O)*)[C@@H]3C; X2 = COc1cc(/N=N/c2cc3c4c(c2OCCCCCC(=O)*)CCCN4CCC3)c(OC)cc1/N=N/c1ccc([N+](=O)[O-])cc1; X1 = CCN(CC)c1ccc2nc3ccc(/N=N/c4ccc(N(C)CCCC(=O)*)cc4)cc3[n+](-c3ccccc3)c2c1; ξThr(3R) = C[C@@H](O)C(N)C(=O)O; AEEA = NCCOCCOCC(=O)O
How the values were obtained:
[1] = In vitro photodynamic activity in ethanol assessed as fluorescence quenching by time-correlated single photon counting method; assay type: functional
[2] = In vitro photodynamic activity in ethanol assessed as decrease in singlet oxygen production by spectrophotometry; assay type: functional; design: scale not given: the % may be the effect or the level left
[3] = molecular target: MMP9 (Homo sapiens, UniProt P14780); test: Substrate activity at MMP9 (unknown origin) assessed as enzyme-mediated substrate hydrolysis at 100 umol/L after 8 hrs by UV-HPLC method relative to control; assay type: ADME; conditions: read-out: Drug metabolism
MMP9, sequence (P14780 whole entry): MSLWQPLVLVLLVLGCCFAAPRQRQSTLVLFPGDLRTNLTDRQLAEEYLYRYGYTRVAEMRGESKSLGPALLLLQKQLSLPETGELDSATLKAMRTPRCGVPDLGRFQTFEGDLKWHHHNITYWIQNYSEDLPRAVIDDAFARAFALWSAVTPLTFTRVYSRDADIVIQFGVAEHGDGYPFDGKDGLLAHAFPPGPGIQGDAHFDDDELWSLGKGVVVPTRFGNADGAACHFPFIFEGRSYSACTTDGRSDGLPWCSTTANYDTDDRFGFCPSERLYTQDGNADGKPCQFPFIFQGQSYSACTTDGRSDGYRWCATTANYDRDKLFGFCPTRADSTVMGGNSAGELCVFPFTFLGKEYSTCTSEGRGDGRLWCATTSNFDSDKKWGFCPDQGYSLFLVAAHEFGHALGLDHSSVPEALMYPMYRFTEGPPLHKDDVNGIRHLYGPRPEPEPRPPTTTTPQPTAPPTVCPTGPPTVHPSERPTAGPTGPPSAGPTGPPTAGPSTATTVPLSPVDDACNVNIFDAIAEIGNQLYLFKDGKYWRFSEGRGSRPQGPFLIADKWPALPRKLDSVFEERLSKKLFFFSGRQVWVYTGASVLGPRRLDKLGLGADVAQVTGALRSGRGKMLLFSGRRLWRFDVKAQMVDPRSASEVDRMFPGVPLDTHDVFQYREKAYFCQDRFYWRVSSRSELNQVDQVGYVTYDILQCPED

[4] = molecular target: MMP2 (Homo sapiens, UniProt P08253); test: Substrate activity at MMP2 (unknown origin) assessed as enzyme-mediated substrate hydrolysis at 100 umol/L after 8 hrs by UV-HPLC method relative to control; assay type: ADME; conditions: read-out: Drug metabolism
MMP2, sequence (P08253 whole entry): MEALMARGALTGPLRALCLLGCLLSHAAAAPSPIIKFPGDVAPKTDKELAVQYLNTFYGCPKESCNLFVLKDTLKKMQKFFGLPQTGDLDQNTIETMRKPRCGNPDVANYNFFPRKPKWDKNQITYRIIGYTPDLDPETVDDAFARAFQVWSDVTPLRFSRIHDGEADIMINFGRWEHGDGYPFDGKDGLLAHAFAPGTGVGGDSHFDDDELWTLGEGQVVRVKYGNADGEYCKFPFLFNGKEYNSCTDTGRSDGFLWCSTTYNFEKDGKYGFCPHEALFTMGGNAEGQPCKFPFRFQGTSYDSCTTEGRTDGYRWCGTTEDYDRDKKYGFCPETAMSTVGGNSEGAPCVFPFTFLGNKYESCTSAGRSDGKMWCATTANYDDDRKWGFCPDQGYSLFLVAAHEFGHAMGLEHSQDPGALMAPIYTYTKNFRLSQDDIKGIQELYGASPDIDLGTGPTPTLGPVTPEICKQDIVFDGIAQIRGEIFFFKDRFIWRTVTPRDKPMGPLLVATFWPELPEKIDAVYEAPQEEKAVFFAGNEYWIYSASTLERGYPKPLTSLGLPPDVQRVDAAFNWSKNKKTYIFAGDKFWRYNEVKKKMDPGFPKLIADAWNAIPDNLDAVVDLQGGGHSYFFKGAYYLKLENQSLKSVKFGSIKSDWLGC

[5] = molecular target: MMP14 (Homo sapiens, UniProt P50281); test: Substrate activity at MMP14 (unknown origin) assessed as enzyme-mediated substrate hydrolysis at 100 umol/L after 8 hrs by UV-HPLC method relative to control; assay type: ADME; conditions: read-out: Drug metabolism
[6] = molecular target: Matrix metalloproteinase-14 (Mus musculus) (UniProt P53690); test: Substrate activity at MT1-MMP in mouse B16F1 cells assessed as enzyme-mediated substrate cleavage at 100 uM after 24 hrs by HPLC analysis; assay type: cell-based

| metabolised at 8 h, 100 µM [4] | metabolised at 8 h, 100 µM [5] | Compound | Activity [1] | Activity [2] | further results |
| --- | --- | --- | --- | --- | --- |
| – | – | C=Cc1c(C)c2cc3nc(c4c5[nH]c(cc6nc(cc1[nH]2)C(C)=C6CC)c(C)c5C(=O)C4)[C@@H](CCC(=O)NCC(=O)N[C@@H](CCCNC(=N)N)C(=O)N[C@H](C(=O)NCC(=O)N[C@@H](Cc1ccccc1)C(=O)N[C@@H](CC(C)C)C(=O)N[C@@H](CCCNC(=N)N)C(=O)N[C@H](C(=O)N[C@@H](C)C(=O)N[C@@H](CCCCNC(=O)CCCCCOc1c(/N=N/c2cc(OC)c(/N=N/c4ccc([N+](=O)[O-])cc4)cc2OC)cc2c4c1CCCN4CCC2)C(=O)NCC(=O)NCC(=O)O)[C@@H](C)O)[C@@H](C)CC)[C@@H]3C ({Pyropheophorbide(a)}-GRIGFLRTAK(X2)GG-OH) | 88% | 77% | – |
| 3% | – | CC[C@H](C)[C@H](NC(=O)[C@H](CCCNC(=N)N)NC(=O)CNC(=O)COCCOCCNC(=O)c1ccc(-c2c3nc(c(-c4ccccc4)c4ccc([nH]4)c(-c4ccccc4)c4nc(c(-c5ccccc5)c5ccc2[nH]5)C=C4)C=C3)cc1)C(=O)NCC(=O)N[C@@H](Cc1ccccc1)C(=O)N[C@@H](CC(C)C)C(=O)N[C@@H](CCCNC(=N)N)C(=O)N[C@H](C(=O)N[C@@H](C)C(=O)N[C@@H](CCCCN)C(=O)NCC(=O)NCC(=O)O)[C@@H](C)O ({Benzoyl(4-TriPhPorphyrinyl)-AEEA}-GRIGFLRTAKGG-OH) | – | – | metabolised at 8 h, 100 µM [3]: 2% |
| 26% | 86% | CC[C@H](C)[C@H](NC(=O)[C@H](CCCNC(=N)N)NC(=O)CN)C(=O)NCC(=O)N[C@@H](Cc1ccccc1)C(=O)N[C@@H](CC(C)C)C(=O)N[C@@H](CCCNC(=N)N)C(=O)NC(C(=O)N[C@@H](C)C(=O)N[C@@H](CCCCNC(=O)CCCN(C)c1ccc(/N=N/c2ccc3nc4ccc(N(CC)CC)cc4[n+](-c4ccccc4)c3c2)cc1)C(=O)NCC(=O)NCC(=O)O)[C@@H](C)O (stereo partly drawn) (H-GRIGFLR[ξThr(3R)]AK(X1)GG-OH) | – | – | – |
| 26% | 99% | H-GRIGFLRTAKGG-OH | – | – | – |
| 20% | 100% | CC[C@H](C)[C@H](NC(=O)[C@H](CCCNC(=N)N)NC(=O)CNC(=O)COCCOCCN)C(=O)NCC(=O)N[C@@H](Cc1ccccc1)C(=O)N[C@@H](CC(C)C)C(=O)N[C@@H](CCCNC(=N)N)C(=O)N[C@H](C(=O)N[C@@H](C)C(=O)N[C@@H](CCCCN)C(=O)NCC(=O)NCC(=O)O)[C@@H](C)O (H-[AEEA]GRIGFLRTAKGG-OH) | – | – | – |
| – | – | C=Cc1c(C)c2cc3nc(c4c5[nH]c(cc6nc(cc1[nH]2)C(C)=C6CC)c(C)c5C(=O)C4)[C@@H](CCC(=O)NCC(=O)N[C@@H](CCCNC(=N)N)C(=O)N[C@H](C(=O)NCC(=O)N[C@@H](Cc1ccccc1)C(=O)N[C@@H](CC(C)C)C(=O)N[C@@H](CCCNC(=N)N)C(=O)N[C@H](C(=O)N[C@@H](C)C(=O)N[C@@H](CCCCNC(=O)CCCN(C)c1ccc(/N=N/c2ccc4nc5ccc(N(CC)CC)cc5[n+](-c5ccccc5)c4c2)cc1)C(=O)NCC(=O)NCC(=O)O)[C@@H](C)O)[C@@H](C)CC)[C@@H]3C ({Pyropheophorbide(a)}-GRIGFLRTAK(X1)GG-OH) | 93% | 100% | – |
| – | – | CC[C@H](C)[C@H](NC(=O)[C@H](CCCNC(=N)N)NC(=O)CNC(=O)c1ccc(-c2c3nc(c(-c4ccccc4)c4ccc([nH]4)c(-c4ccccc4)c4nc(c(-c5ccccc5)c5ccc2[nH]5)C=C4)C=C3)cc1)C(=O)NCC(=O)N[C@@H](Cc1ccccc1)C(=O)N[C@@H](CC(C)C)C(=O)N[C@@H](CCCNC(=N)N)C(=O)N[C@H](C(=O)N[C@@H](C)C(=O)N[C@@H](CCCCNC(=O)CCCCCOc1c(/N=N/c2cc(OC)c(/N=N/c3ccc([N+](=O)[O-])cc3)cc2OC)cc2c3c1CCCN3CCC2)C(=O)NCC(=O)NCC(=O)O)[C@@H](C)O ({Benzoyl(4-TriPhPorphyrinyl)}-GRIGFLRTAK(X2)GG-OH) | 90% | 80% | Activity [6]: Active |
| – | 31% | CC[C@H](C)[C@H](NC(=O)[C@H](CCCNC(=N)N)NC(=O)CN)C(=O)NCC(=O)N[C@@H](Cc1ccccc1)C(=O)N[C@@H](CC(C)C)C(=O)N[C@@H](CCCNC(=N)N)C(=O)N[C@H](C(=O)N[C@@H](C)C(=O)N[C@@H](CCCCNC(=O)CCCCCOc1c(/N=N/c2cc(OC)c(/N=N/c3ccc([N+](=O)[O-])cc3)cc2OC)cc2c3c1CCCN3CCC2)C(=O)NCC(=O)NCC(=O)O)[C@@H](C)O | – | – | – |
| – | – | C=Cc1c(C)c2cc3nc(c4c5[nH]c(cc6nc(cc1[nH]2)C(C)=C6CC)c(C)c5C(=O)C4)[C@@H](CCC(=O)NCC(=O)N[C@@H](CCCNC(=N)N)C(=O)N[C@H](C(=O)NCC(=O)N[C@@H](Cc1ccccc1)C(=O)N[C@@H](CC(C)C)C(=O)N[C@@H](CCCNC(=N)N)C(=O)N[C@H](C(=O)N[C@@H](C)C(=O)N[C@@H](CCCCN)C(=O)NCC(=O)NCC(=O)O)[C@@H](C)O)[C@@H](C)CC)[C@@H]3C ({Pyropheophorbide(a)}-GRIGFLRTAKGG-OH) | – | – | metabolised at 8 h, 100 µM [3]: 5% |
| – | – | CC[C@H](C)[C@H](NC(=O)[C@H](CCCNC(=N)N)NC(=O)CNC(=O)c1ccc(-c2c3nc(c(-c4ccccc4)c4ccc([nH]4)c(-c4ccccc4)c4nc(c(-c5ccccc5)c5ccc2[nH]5)C=C4)C=C3)cc1)C(=O)NCC(=O)N[C@@H](Cc1ccccc1)C(=O)N[C@@H](CC(C)C)C(=O)N[C@@H](CCCNC(=N)N)C(=O)N[C@H](C(=O)N[C@@H](C)C(=O)N[C@@H](CCCCNC(=O)CCCN(C)c1ccc(/N=N/c2ccc3nc4ccc(N(CC)CC)cc4[n+](-c4ccccc4)c3c2)cc1)C(=O)NCC(=O)NCC(=O)O)[C@@H](C)O ({Benzoyl(4-TriPhPorphyrinyl)}-GRIGFLRTAK(X1)GG-OH) | 80% | 100% | – |
| – | – | CC[C@H](C)[C@H](NC(=O)[C@H](CCCNC(=N)N)NC(=O)CNC(=O)COCCOCCNC(=O)c1ccc(-c2c3nc(c(-c4ccccc4)c4ccc([nH]4)c(-c4ccccc4)c4nc(c(-c5ccccc5)c5ccc2[nH]5)C=C4)C=C3)cc1)C(=O)NCC(=O)N[C@@H](Cc1ccccc1)C(=O)N[C@@H](CC(C)C)C(=O)N[C@@H](CCCNC(=N)N)C(=O)N[C@H](C(=O)N[C@@H](C)C(=O)N[C@@H](CCCCNC(=O)CCCN(C)c1ccc(/N=N/c2ccc3nc4ccc(N(CC)CC)cc4[n+](-c4ccccc4)c3c2)cc1)C(=O)NCC(=O)NCC(=O)O)[C@@H](C)O ({Benzoyl(4-TriPhPorphyrinyl)-AEEA}-GRIGFLRTAK(X1)GG-OH) | 80% | 100% | – |

Reference: ChEMBL document CHEMBL4219063, “New photodynamic molecular beacons (PMB) as potential cancer-targeted agents in PDT” (Bioorg Med Chem, 2018)
